# From DBAASP
# What was measured:
# Assay in all cases: ≥ marks a high value that may be exact or a test limit, other limits are often not marked, values filed in µg/mL are converted to µM
# [1] = test system: Salmonella enterica subsp. enterica serovar Typhimurium ATCC 14028
# [2] = test system: Klebsiella pneumoniae ATCC 10031
# [3] = test system: Staphylococcus aureus ATCC 6538
# [4] = test system: Pseudomonas aeruginosa ATCC 13388
# [5] = test system: Escherichia coli ATCC 11219
# [6] = test system: Pseudomonas aeruginosa ATCC 47085
# [7] = test system: Staphylococcus aureus ATCC 25923
# Alternaria alternata = test system: Alternaria alternata
# [8] = test system: Pseudomonas corrugata DSM 7228
# [9] = test system: Pseudomonas syringae pv. syringae DSM 10604
# [10] = test system: Xanthomonas vesicatoria DSM 50861
# Cladosporium herbarum = test system: Cladosporium herbarum
# [11] = test system: Pseudomonas syringae pv. tomato DC3000
# [12] = test system: Pectobacterium carotovorum subsp. carotovorum DSM 30168
# [13] = test system: Clavibacter michiganensis subsp. michiganensis DSM 46294
# Botrytis cinerea = test system: Botrytis cinerea
# [14] = test system: Staphylococcus aureus 90857
MIC [1],MIC [2],MIC [3],MIC [4],MIC [5],MIC [6],MIC [7],MIC (Alternaria alternata),MIC [8],MIC [9],MIC [10],MIC (Cladosporium herbarum),MIC [11],MIC [12],MIC [13],MIC (Botrytis cinerea),MIC [14],SMILES
10 µM,10 µM,10 µM,15 µM,5 µM,–,–,–,–,–,–,–,–,–,–,–,–,CC[C@H](C)[C@H](NC(=O)CN)C(=O)N[C@@H](Cc1cnc[nH]1)C(=O)N[C@@H](CC(=O)O)C(=O)N[C@H](C(=O)N[C@@H](CC(C)C)C(=O)N[C@@H](CCCCN)C(=O)N[C@@H](Cc1ccc(O)cc1)C(=O)N[C@@H](C)C(=O)N[C@@H](CCCCN)C(=O)N1CCC[C@H]1C(=O)N[C@@H](CO)C(N)=O)[C@@H](C)CC [GIHDILKYAKPS]
5 µM,5 µM,10 µM,20 µM,5 µM,–,–,–,–,–,–,–,–,–,–,–,–,CC[C@H](C)[C@H](NC(=O)CN)C(=O)N[C@@H](CCCN=C(N)N)C(=O)N[C@@H](CC(=O)O)C(=O)N[C@H](C(=O)N[C@@H](CC(C)C)C(=O)N[C@@H](CCCCN)C(=O)N[C@@H](Cc1ccc(O)cc1)C(=O)NCC(=O)N[C@@H](CCCCN)C(=O)N1CCC[C@H]1C(=O)N[C@@H](CO)C(N)=O)[C@@H](C)CC [GIRDILKYGKPS]
–,–,–,–,–,≥ 415 µM,> 415 µM,–,–,–,–,–,–,–,–,–,–,CC[C@H](C)[C@H](NC(=O)[C@H](CCCN=C(N)N)NC(=O)[C@H](CC(C)C)NC(=O)[C@H](Cc1ccccc1)NC(=O)[C@H](CCC(=O)O)NC(=O)[C@H](CCCCN)NC(=O)[C@H](Cc1c[nH]c2ccccc12)NC(=O)[C@H](CCCCN)NC(=O)[C@H](Cc1c[nH]c2ccccc12)NC(=O)CNC(=O)[C@H](Cc1c[nH]c2ccccc12)NC(=O)[C@H](CCCCN)NC(=O)[C@H](Cc1c[nH]c2ccccc12)NC(=O)[C@H](CC(C)C)NC(=O)[C@H](CC(C)C)NC(=O)CN)C(=O)N[C@H](C(=O)NCC(=O)N[C@@H](Cc1ccc(O)cc1)C(N)=O)C(C)C [GLLWKWGWKWKEFLRIVGY]
–,–,–,–,–,–,–,≥ 73.9 µM,29.5 µM,29.5 µM,29.5 µM,29.5 µM,7.39 µM,29.5 µM,29.5 µM,≥ 73.9 µM,–,CC(C)C[C@H](NC(=O)[C@H](C)NC(=O)[C@H](CCCN=C(N)N)NC(=O)[C@H](CCCCN)NC(=O)[C@H](CC(C)C)NC(=O)[C@H](C)NC(=O)[C@H](CCCN=C(N)N)NC(=O)[C@H](C)NC(=O)[C@H](C)NC(=O)[C@H](CCCCN)NC(=O)[C@H](CCCCN)NC(=O)[C@@H](N)CCCCN)C(N)=O [KKKAARALKRAL]
–,–,–,–,–,–,–,≥ 70 µM,28 µM,28 µM,28 µM,28 µM,28 µM,28 µM,28 µM,≥ 70 µM,≥ 62.5 µM,CC[C@H](C)[C@H](NC(=O)[C@H](CC(C)C)NC(=O)[C@@H](N)CC(C)C)C(=O)N[C@@H](CCCN=C(N)N)C(=O)N[C@@H](C)C(=O)N[C@@H](C)C(=O)N[C@@H](CCCCN)C(=O)N[C@@H](CCCCN)C(=O)N[C@@H](Cc1ccccc1)C(=O)N[C@H](C(=O)N[C@@H](CCCCN)C(=O)N[C@@H](CCCCN)C(N)=O)[C@@H](C)CC [LLIRAAKKFIKK]
–,–,–,–,–,–,–,–,0.332 µM,0.0664 µM,0.166 µM,–,0.332 µM,0.664 µM,0.166 µM,–,0.625 µM,CC(C)C[C@H](NC(=O)[C@H](C)NC(=O)[C@H](CCCCN)NC(=O)[C@H](CCCCN)NC(=O)[C@H](CC(C)C)NC(=O)[C@H](Cc1ccccc1)NC(=O)[C@H](CCCN=C(N)N)NC(=O)[C@@H](N)CC(C)C)C(=O)N[C@@H](CCCCN)C(=O)N[C@@H](CCCCN)C(=O)N[C@@H](CC(C)C)C(=O)N[C@@H](Cc1ccccc1)C(N)=O [LRFLKKALKKLF]
